{"source": "patent US4663458A", "about": "“Water soluble salt composition of m-AMSA” (Bristol-Myers Company, priority 1985, dated 1987)", "key": {"[1]": {"settings": "prior art; cited from earlier work"}, "animal tumor systems": {"tested_on": "animal tumor systems", "settings": "Cain et al., Europ. J. Cancer 10:539-549 (1974); cited from earlier work"}, "[2]": {"test": "Storage stability / precipitation of m-AMSA lactate aqueous solutions"}, "[3]": {"test": "Aqueous solubility of m-AMSA base and salts"}}, "note": "Where a name gives a salt, the structure may show the parent alone.", "data": [{"smiles": "COc1cc(NS(C)(=O)=O)ccc1Nc1c2ccccc2nc2ccccc12", "note": "[monohydrochloride]", "values": [{"measurement": "solubility in water", "setting": "[1]", "result": "insufficiently water-soluble"}]}, {"smiles": "COc1cc(NS(C)(=O)=O)ccc1Nc1c2ccccc2nc2ccccc12", "note": "[m-AMSA, 4'9-(acridinylamino) methanesulfon-m-anisidide]", "values": [{"measurement": "antitumor activity", "setting": "animal tumor systems", "result": "significant antitumor activity"}, {"measurement": "solubility in water", "setting": "[1]", "result": "very limited solubility in water"}]}, {"smiles": "COc1cc(NS(C)(=O)=O)ccc1Nc1c2ccccc2nc2ccccc12", "note": "[monomethanesulfonate]", "values": [{"measurement": "solubility in water", "setting": "[1]", "result": "insufficiently water-soluble"}]}, {"smiles": "COc1cc(NS(C)(=O)=O)ccc1Nc1c2ccccc2nc2ccccc12", "note": "[m-AMSA lactate salts]", "values": [{"measurement": "precipitation under extended storage", "setting": "[2]; concentrations as high as 5 mg/ml, extended storage at 24° C.", "result": "can result in precipitates"}]}, {"smiles": "COc1cc(NS(C)(=O)=O)ccc1Nc1c2ccccc2nc2ccccc12", "note": "[m-AMSA L(+)-lactate monohydrate salt]", "values": [{"measurement": "reconstitution rates", "setting": "[3]", "result": "excellent"}, {"measurement": "solubility", "setting": "[3]; water", "result": "~2500", "unit": "µg/mL"}, {"measurement": "stability", "setting": "[2]; for use as an intravenous drug", "result": "the stability necessary for use as an intravenous drug"}]}]}
